US20240018128A1, “PESTICIDALLY ACTIVE HETEROCYCLIC DERIVATIVES WITH SULFUR CONTAINING SUBSTITUENTS” (SYNGENTA CROP PROTECTION AG, priority 2020, published 2024)

Assays:
Assay type in all cases: in vivo
[1] = system: Spodoptera littoralis (Egyptian cotton leaf worm); assay: Example B6: Activity against Spodoptera littoralis (Egyptian cotton leaf worm); settings: foliar, 72 h, application rate 200 ppm, cotton leaf discs sprayed, L1 larvae, 3 days after infestation, read-out: control (mortality, anti-feeding effect or growth inhibition)
Description: Example B6: Activity Against Spodoptera littoralis (Egyptian Cotton Leaf Worm)
Cotton leaf discs were placed onto agar in 24-well microtiter plates and sprayed with aqueous test solutions prepared from 10,000 ppm DMSO stock solutions. After drying the leaf discs were infested with five L1 larvae. The samples were assessed for mortality, anti-feeding effect, and growth inhibition in comparison to untreated samples 3 days after infestation. Control of Spodoptera littoralis by a test sample is given when at least one of the categories mortality, anti-feedant effect, and growth inhibition is higher than the untreated sample.

[2] = system: Myzus persicae (green peach aphid); assay: Example B4: Activity against Myzus persicae (green peach aphid), feeding/contact activity; settings: foliar, 144 h, application rate 200 ppm, sunflower leaf discs sprayed, aphid population of mixed ages, 6 days after infestation
Description: Example B4: Activity Against Myzus persicae (Green Peach Aphid) Feeding/Contact Activity
Sunflower leaf discs were placed onto agar in a 24-well microtiter plate and sprayed with aqueous test solutions prepared from 10,000 ppm DMSO stock solutions. After drying, the leaf discs were infested with an aphid population of mixed ages. The samples were assessed for mortality 6 days after infestation.

[3] = system: Euschistus heros (neotropical brown stink bug); assay: Example B2: Activity against Euschistus heros (neotropical brown stink bug); settings: 120 h, application rate 200 ppm, soybean leaves sprayed, N2 nymphs, 5 days after infestation, read-out: effect in at least one of the two categories (mortality or growth inhibition)
Description: Example B2: Activity Against Euschistus heros (Neotropical Brown Stink Bug)
Soybean leaves on agar in 24-well microtiter plates were sprayed with aqueous test solutions prepared from 10,000 ppm DMSO stock solutions. After drying the leaves were infested with N2 nymphs. The samples were assessed for mortality and growth inhibition in comparison to untreated samples 5 days after infestation.

[4] = system: Plutella xylostella (diamond back moth); assay: Example B5: Activity against Plutella xylostella (diamond back moth); settings: 192 h, application rate 200 ppm, artificial diet treated by pipetting, eggs, 8 days after infestation, read-out: effect in at least one of the two categories (mortality or growth inhibition)
Description: Example B5: Activity Against Plutella xylostella (Diamond Back Moth)
24-well microtiter plates with artificial diet were treated with aqueous test solutions prepared from 10,000 ppm DMSO stock solutions by pipetting. After drying, Plutella eggs were pipetted through a plastic stencil onto a gel blotting paper and the plate was closed with it. The samples were assessed for mortality and growth inhibition in comparison to untreated samples 8 days after infestation. The following compounds gave an effect of at least 80% in at least one of the two categories (mortality or growth inhibition) at an application rate of 200 ppm: P1, P2, P4, P5, P6, P7, P9, P10, P11, P12, P13, P14, P15, P16, P17, P18.

[5] = system: Diabrotica balteata (corn root worm); assay: Example B1: Activity against Diabrotica balteata (corn root worm); settings: 96 h, application rate 200 ppm, maize sprouts sprayed, L2 larvae, 4 days after infestation, read-out: effect in at least one of the two categories (mortality or growth inhibition)
Description: Example B1: Activity Against Diabrotica Balteata (Corn Root Worm)
Maize sprouts placed onto an agar layer in 24-well microtiter plates were treated with aqueous test solutions prepared from 10,000 ppm DMSO stock solutions by spraying. After drying, the plates were infested with L2 larvae (6 to 10 per well). The samples were assessed for mortality and growth inhibition in comparison to untreated samples 4 days after infestation.

[6] = system: Myzus persicae (green peach aphid); assay: Example B9: Activity against Myzus persicae (green peach aphid), systemic activity; settings: 144 h, test rate 24 ppm, roots of infested pea seedlings placed into test solution, 6 days
Description: Example B9: Activity Against Myzus persicae (Green Peach Aphid). Systemic Activity
Roots of pea seedlings infested with an aphid population of mixed ages were placed directly into aqueous test solutions prepared from 10,000 DMSO stock solutions. The samples were assessed for mortality 6 days after placing seedlings into test solutions.

[7] = system: Chilo suppressalis (striped rice stemborer); assay: Example B8: Activity against Chilo suppressalis (striped rice stemborer); settings: 144 h, application rate 200 ppm, artificial diet treated by pipetting, L2 larvae, 6 days after infestation, read-out: control (mortality, anti-feeding effect or growth inhibition)
Description: Example B8: Activity Against Chilo suppressalis (Striped Rice Stemborer)
24-well microtiter plates with artificial diet were treated with aqueous test solutions prepared from 10,000 ppm DMSO stock solutions by pipetting. After drying, the plates were infested with L2 larvae (6-8 per well). The samples were assessed for mortality, anti-feeding effect, and growth inhibition in comparison to untreated samples 6 days after infestation. Control of Chilo suppressalis by a test sample is given when at least one of the categories mortality, anti-feedant effect, and growth inhibition is higher than the untreated sample.

CCS(=O)(=O)c1c(N2Cc3ncc(C(F)(F)F)cc3C2=O)nc(-c2cnn(C3CC3)c2)n1C [Compound P2, 6-[2-(1-cyclopropylpyrazol-4-yl)-5-ethylsulfonyl-1-methyl-imidazol-4-yl]-3-(trifluoromethyl)-7H-pyrrolo[3,4-b]pyridin-5-one]
≥ 80%: control at 200 ppm [1] | mortality at 200 ppm [2] | percent effect (mortality or growth inhibition) at 200 ppm [3] | effect (mortality or growth inhibition) at 200 ppm [4] | mortality or growth inhibition at 200 ppm [5] | mortality at 24 ppm [6] | control at 200 ppm [7]

CCS(=O)(=O)c1c(N2Cc3ncc(C(F)(F)F)cc3C2=O)nc(C2CC(C3CC3)=NO2)n1C (stereo not shown) [Compound P3, 6-[2-(3-cyclopropyl-4,5-dihydroisoxazol-5-yl)-5-ethylsulfonyl-1-methyl-imidazol-4-yl]-3-(trifluoromethyl)-7H-pyrrolo[3,4-b]pyridin-5-one]
≥ 80%: control at 200 ppm [7]

CCS(=O)(=O)c1c(N2Cc3ncc(C(F)(F)F)cc3C2=O)nc(-c2cnn(CC3(C#N)CC3)c2)n1C [Compound P4, 1-[[4-[5-ethylsulfonyl-1-methyl-4-[5-oxo-3-(trifluoromethyl)-7H-pyrrolo[3,4-b]pyridin-6-yl]imidazol-2-yl]pyrazol-1-yl]methyl]cyclopropane-carbonitrile]
≥ 80%: mortality at 200 ppm [2] | percent effect (mortality or growth inhibition) at 200 ppm [3] | effect (mortality or growth inhibition) at 200 ppm [4] | mortality at 24 ppm [6] | control at 200 ppm [7]

CCS(=O)(=O)c1c(N2Cc3ncc(C(F)(F)F)cc3C2=O)nc(-c2cnn(CC(F)F)c2)n1C [Compound P5, 6-[2-[1-(2,2-difluoroethyl)pyrazol-4-yl]-5-ethylsulfonyl-1-methyl-imidazol-4-yl]-3-(trifluoromethyl)-7H-pyrrolo[3,4-b]pyridin-5-one]
≥ 80%: control at 200 ppm [1] | mortality at 200 ppm [2] | percent effect (mortality or growth inhibition) at 200 ppm [3] | effect (mortality or growth inhibition) at 200 ppm [4] | mortality at 24 ppm [6] | control at 200 ppm [7]

CCS(=O)(=O)c1c(N2Cc3ncc(C(F)(F)F)cc3C2=O)nc(OCC(F)(F)F)n1C [Compound P6, 6-[5-ethylsulfonyl-1-methyl-2-(2,2,2-trifluoroethoxy)imidazol-4-yl]-3-(trifluoromethyl)-7H-pyrrolo[3,4-b]pyridin-5-one]
≥ 80%: control at 200 ppm [1] | mortality at 200 ppm [2] | effect (mortality or growth inhibition) at 200 ppm [4] | mortality or growth inhibition at 200 ppm [5] | mortality at 24 ppm [6] | control at 200 ppm [7]

CCS(=O)(=O)c1c(N2Cc3ccc(OC(F)(F)F)cc3C2=O)nc(-c2cncnc2)n1C [Compound P7, 2-(5-ethylsulfonyl-1-methyl-2-pyrimidin-5-yl-imidazol-4-yl)-6-(trifluoromethoxy)isoindolin-1-one]
≥ 80%: control at 200 ppm [1] | effect (mortality or growth inhibition) at 200 ppm [4] | control at 200 ppm [7]

CCS(=O)(=O)c1c(N2Cc3ncc(C(F)(F)F)cc3C2=O)nc(-c2cncnc2)n1C [Compound P8, 6-(5-ethylsulfonyl-1-methyl-2-pyrimidin-5-yl-imidazol-4-yl)-3-(trifluoromethyl)-7H-pyrrolo[3,4-b]pyridin-5-one]
≥ 80%: mortality at 24 ppm [6]

CCS(=O)(=O)c1c(N2Cc3ncc(C(F)(F)F)cc3C2=O)nc(-c2cnn(CC3CC3)c2)n1C [Compound P9, 6-[2-[1-(cyclopropylmethyl)pyrazol-4-yl]-5-ethylsulfonyl-1-methyl-imidazol-4-yl]-3-(trifluoromethyl)-7H-pyrrolo[3,4-b]pyridin-5-one]
≥ 80%: control at 200 ppm [1] | mortality at 200 ppm [2] | percent effect (mortality or growth inhibition) at 200 ppm [3] | effect (mortality or growth inhibition) at 200 ppm [4] | mortality or growth inhibition at 200 ppm [5] | mortality at 24 ppm [6] | control at 200 ppm [7]

CCS(=O)(=O)c1c(N2Cc3ccc(OC(F)(F)F)cc3C2=O)nc(-c2ncccn2)n1C [Compound P11, 2-(5-ethylsulfonyl-1-methyl-2-pyrimidin-2-yl-imidazol-4-yl)-6-(trifluoromethoxy)isoindolin-1-one]
≥ 80%: mortality at 200 ppm [2] | percent effect (mortality or growth inhibition) at 200 ppm [3] | effect (mortality or growth inhibition) at 200 ppm [4] | mortality or growth inhibition at 200 ppm [5] | mortality at 24 ppm [6] | control at 200 ppm [7]

CCS(=O)(=O)c1c(N2Cc3ncc(C(F)(F)F)cc3C2=O)nc(-c2ncccn2)n1C [Compound P12, 6-(5-ethylsulfonyl-1-methyl-2-pyrimidin-2-yl-imidazol-4-yl)-3-(trifluoromethyl)-7H-pyrrolo[3,4-b]pyridin-5-one]
≥ 80%: mortality at 200 ppm [2] | percent effect (mortality or growth inhibition) at 200 ppm [3] | effect (mortality or growth inhibition) at 200 ppm [4] | mortality or growth inhibition at 200 ppm [5] | mortality at 24 ppm [6] | control at 200 ppm [7]

CCS(=O)(=O)c1c(N2Cc3ncc(C(F)(F)F)cc3C2=O)nc(-n2cc(C(F)(F)F)cn2)n1C [Compound P14, 6-[5-ethylsulfonyl-1-methyl-2-[4-(trifluoromethyl)pyrazol-1-yl]imidazol-4-yl]-3-(trifluoromethyl)-7H-pyrrolo[3,4-b]pyridin-5-one]
≥ 80%: control at 200 ppm [1] | mortality at 200 ppm [2] | percent effect (mortality or growth inhibition) at 200 ppm [3] | effect (mortality or growth inhibition) at 200 ppm [4] | mortality or growth inhibition at 200 ppm [5] | control at 200 ppm [7]

CCS(=O)(=O)c1c(N2Cc3ncc(C(F)(F)F)cc3C2=O)nc(-n2ccc(C3CC3)n2)n1C [Compound P15, 6-[2-(3-cyclopropylpyrazol-1-yl)-5-ethylsulfonyl-1-methyl-imidazol-4-yl]-3-(trifluoromethyl)-7H-pyrrolo[3,4-b]pyridin-5-one]
≥ 80%: control at 200 ppm [1] | mortality at 200 ppm [2] | percent effect (mortality or growth inhibition) at 200 ppm [3] | effect (mortality or growth inhibition) at 200 ppm [4] | mortality or growth inhibition at 200 ppm [5]

CCS(=O)(=O)c1c(N2Cc3ncc(C(F)(F)F)cc3C2=O)nc(-n2ccc(Cl)n2)n1C [Compound P16, 6-[2-(3-chloropyrazol-1-yl)-5-ethylsulfonyl-1-methyl-imidazol-4-yl]-3-(trifluoromethyl)-7H-pyrrolo[3,4-b]pyridin-5-one]
≥ 80%: control at 200 ppm [1] | mortality at 200 ppm [2] | percent effect (mortality or growth inhibition) at 200 ppm [3] | effect (mortality or growth inhibition) at 200 ppm [4] | mortality or growth inhibition at 200 ppm [5] | control at 200 ppm [7]

CCS(=O)(=O)c1c(N2Cc3ncc(C(F)(F)F)cc3C2=O)nc(-c2ccc(C3(C#N)CC3)cc2)n1C [Compound P18, 1-[4-[5-ethylsulfonyl-1-methyl-4-[5-oxo-3-(trifluoromethyl)-7H-pyrrolo[3,4-b]pyridin-6-yl]imidazol-2-yl]phenyl]cyclopropane-carbonitrile]
≥ 80%: control at 200 ppm [1] | mortality at 200 ppm [2] | effect (mortality or growth inhibition) at 200 ppm [4] | mortality or growth inhibition at 200 ppm [5] | control at 200 ppm [7]
